Results reported in patent US8791143B2, “Anthranilic diamide derivatives having cyclic side-chains” (priority 2010, dated 2014).
Where two headings read alike, the source gives them in different places.

Key:
[1] = system: larvae of the mustard beetle (Phaedon cochleariae); test: Phaedon test (PHAECO spray treatment); details: for activity in % (beetle larvae killed): application rate 100 g/ha, after 7 days; for inhibition at 20 g/ha / pest or weed control at 100 g/ha: Phaedon cochleariae, 168 h; for inhibition at 20 g/ha: read-out: % Activity PHAECO; for pest or weed control at 100 g/ha: read-out: activity in % (beetle larvae killed)
[2] = log P by HPLC on reversed-phase columns (EEC Directive 79/831 Annex V.A8); format: physicochemical
[3] = system: green peach aphid (Myzus persicae); test: Myzus test (MYZUPE spray treatment); format: in vivo; details: Myzus persicae, 144 h; for inhibition at 20 g/ha / inhibition at 100 g/ha: 6 d, comparison with prior art
[4] = system: caterpillars of the armyworm (Spodoptera frugiperda); test: Spodoptera frugiperda test (SPODFR spray treatment); format: in vivo; details: for pest or weed control at 100 g/ha: read-out: activity in % (caterpillars killed)
[5] = read-out: activity in % (aphids killed)
[6] = application rate 100 g/ha, after 7 days
[7] = Spodoptera frugiperda, 168 h, 7 d, comparison with prior art
[8] = reversed-phase C18 HPLC column, pH 2.7, HPLC reversed-phase C18, acidic range pH 2.7 (HCOOH), only or first value of the cell, read-out: log P
[9] = Spodoptera frugiperda, 168 h, application rate 100 g/ha, after 7 days

Row | SMILES | chromatographic logP ([2]; pH 2.7, log P) | pest or weed control at 100 g/ha [1] [%] | pest or weed control at 100 g/ha ([4]; Spodoptera frugiperda, 168 h) [%] | chromatographic logP [2, 8] | pest or weed control at 100 g/ha [4, 9] [%] | further results
1 | Cc1cc(C#N)cc(C(=O)NC2COC2)c1NC(=O)c1cc(Cn2nnc(C(F)(F)F)n2)nn1-c1ncccc1Cl [Example 1] | 2.49 | – | – | – | – | activity in % (beetle larvae killed) [1]: 100%; pest or weed control at 100 g/ha [3, 5]: 90%; inhibition at 20 g/ha [3]: 100%; activity in % (caterpillars killed) [4, 6]: 100%
2 | Cc1cc(Cl)cc(C(=O)NC2COC2)c1NC(=O)c1cc(Cn2nnc(C(F)(F)F)n2)nn1-c1ncccc1Cl [Example 2] | 2.8 | 100 | 100 | – | – | inhibition at 20 g/ha [1]: 100%; pest or weed control at 100 g/ha [3, 5]: 100%; inhibition at 100 g/ha [3]: 100%; inhibition at 20 g/ha [4, 7]: 100%
3 | Cc1cc(Br)cc(C(=O)NC2COC2)c1NC(=O)c1cc(Cn2nnc(C(F)(F)F)n2)nn1-c1ncccc1Cl [Example 3] | 2.87 | 100 | 100 | – | – | pest or weed control at 100 g/ha [3, 5]: 100%
4 | Cc1cc(F)cc(C(=O)NC2COC2)c1NC(=O)c1cc(Cn2nnc(C(F)(F)F)n2)nn1-c1ncccc1Cl [Example 4] | 2.53 | 100 | 100 | – | – | pest or weed control at 100 g/ha [3, 5]: 100%
5 | Cc1cc(I)cc(C(=O)NC2COC2)c1NC(=O)c1cc(Cn2nnc(C(F)(F)F)n2)nn1-c1ncccc1Cl [Example 6] | 3 | 100 | 100 | – | – | pest or weed control at 100 g/ha [3, 5]: 80%
6 | Cc1cc(C)c(NC(=O)c2cc(Cn3nnc(C(F)(F)F)n3)nn2-c2ncccc2Cl)c(C(=O)NC2COC2)c1 [Example 7] | 2.67 | 100 | 100 | – | – | pest or weed control at 100 g/ha [3, 5]: 90%
7 | O=C(NC1COC1)c1cc(Cl)cc(Cl)c1NC(=O)c1cc(Cn2nnc(C(F)(F)C(F)(F)F)n2)nn1-c1ncccc1Cl [Example 10] | 3.18 | 100 | 100 | – | – | pest or weed control at 500 g/ha [3, 5]: 100%
8 | Cc1cc(C#N)cc(C(=O)NC2COC2)c1NC(=O)c1cc(Cn2nnc(C(F)(F)C(F)(F)F)n2)nn1-c1ncccc1Cl [Example 14] | 2.87 | 100 | 100 | – | – | pest or weed control at 100 g/ha [3, 5]: 90%
9 | Cc1cc(C#N)cc(C(=O)NC2CSC2)c1NC(=O)c1cc(Cn2nnc(C(F)(F)F)n2)nn1-c1ncccc1Cl [Example 15] | 3.06 | 100 | 100 | – | – | pest or weed control at 100 g/ha [3, 5]: 100%
10 | Cc1cc(C#N)cc(C(=O)NC2CCSCC2)c1NC(=O)c1cc(Cn2nnc(C(F)(F)F)n2)nn1-c1ccccc1Cl [Example 58] | – | 100 | – | 3.65 | – | pest or weed control at 100 g/ha ([3]; application rate 100 g/ha, after 6 days, read-out: activity in % (aphids killed)): 100%
11 | O=C(NCc1ccccc1Cl)c1cc(Br)cc(Cl)c1NC(=O)c1cc(Cn2nnc(C(F)(F)F)n2)nn1-c1ncccc1Cl [Example 203] | 4.07 | 100 | 100 | – | – | –
12 | O=C(NCc1cccc(Cl)c1)c1cc(Br)cc(Cl)c1NC(=O)c1cc(Cn2nnc(C(F)(F)F)n2)nn1-c1ncccc1Cl [Example 204] | 4.09 | 100 | 100 | – | – | –
13 | O=C(NCc1ccc(Cl)cc1)c1cc(Br)cc(Cl)c1NC(=O)c1cc(Cn2nnc(C(F)(F)F)n2)nn1-c1ncccc1Cl [Example 205] | 4.08 | 100 | 100 | – | – | –
14 | O=C(NCc1cccc(Cl)c1)c1cc(Cl)cc(F)c1NC(=O)c1cc(Cn2nnc(C(F)(F)F)n2)nn1-c1ncccc1Cl [Example 207] | – | 100 | – | 3.89 | 100 | –
15 | O=C(NCc1ccc(Cl)cc1)c1cc(Cl)cc(F)c1NC(=O)c1cc(Cn2nnc(C(F)(F)F)n2)nn1-c1ncccc1Cl [Example 208] | – | – | – | – | – | activity in % (beetle larvae killed) [1]: 100%; log P ([2]; HPLC reversed-phase C18, acidic range pH 2.7 (HCOOH), only or first value of the cell): 3.95; activity in % (caterpillars killed) [4, 6]: 100%
16 | O=C(NCc1ccccc1OC(F)(F)F)c1cc(Cl)cc(F)c1NC(=O)c1cc(Cn2nnc(C(F)(F)F)n2)nn1-c1ncccc1Cl [Example 209] | – | 100 | – | 4.12 | 100 | –
17 | O=C(NCc1cccc(OC(F)(F)F)c1)c1cc(Cl)cc(F)c1NC(=O)c1cc(Cn2nnc(C(F)(F)F)n2)nn1-c1ncccc1Cl [Example 210] | – | 100 | – | 4.22 | 100 | –
18 | O=C(NCc1ccc(OC(F)(F)F)cc1)c1cc(Cl)cc(F)c1NC(=O)c1cc(Cn2nnc(C(F)(F)F)n2)nn1-c1ncccc1Cl [Example 211] | – | 100 | – | 4.21 | 100 | –

Row | SMILES | chromatographic logP ([2]; pH 2.7, log P) | pest or weed control at 100 g/ha [1] [%] | pest or weed control at 100 g/ha ([4]; Spodoptera frugiperda, 168 h) [%] | chromatographic logP [2, 8] | pest or weed control at 100 g/ha [4, 9] [%] | further results
19 | Cc1cc(C#N)cc(C(=O)NCc2cccc(OC(F)F)c2)c1NC(=O)c1cc(Cn2nnc(C(F)(F)F)n2)nn1-c1ccccc1Cl [Example 212] | – | 100 | – | 3.67 | 100 | –
20 | Cc1cc(C#N)cc(C(=O)NCc2cccc(OC(F)(F)F)c2)c1NC(=O)c1cc(Cn2nnc(C(F)(F)F)n2)nn1-c1ccccc1Cl [Example 213] | – | 100 | – | 4.18 | 100 | –
21 | Cc1cc(C#N)cc(C(=O)NCc2cccc(OC(F)(F)F)c2)c1NC(=O)c1cc(Cn2nnc(C(F)(F)F)n2)nn1-c1c(Cl)cccc1Cl [Example 214] | – | 100 | – | 4.23 | 100 | –
22 | Cc1cc(C#N)cc(C(=O)NCc2cccc(OC(F)F)c2)c1NC(=O)c1cc(Cn2nnc(C(F)(F)F)n2)nn1-c1c(Cl)cccc1Cl [Example 215] | – | 100 | – | 3.78 | 100 | –
23 | Cc1cc(C#N)cc(C(=O)NCc2ccc(OC(F)F)cc2)c1NC(=O)c1cc(Cn2nnc(C(F)(F)F)n2)nn1-c1c(Cl)cccc1Cl [Example 216] | – | 100 | – | 4.1 | 100 | –
24 | Cc1cc(C#N)cc(C(=O)NCc2ccccc2OC(F)(F)F)c1NC(=O)c1cc(Cn2nnc(C(F)(F)F)n2)nn1-c1ccccc1Cl [Example 217] | – | 100 | – | 4.28 | 100 | –
25 | Cc1cccc(CNC(=O)c2cc(Cl)cc(C)c2NC(=O)c2cc(Cn3nnc(C(F)(F)F)n3)nn2-c2ncccc2Cl)n1 [Example 225] | 2.24 | 100 | 100 | – | – | –
26 | Cc1cc(Cl)cc(C(=O)NCc2ccc(C(F)(F)F)cn2)c1NC(=O)c1cc(Cn2nnc(C(F)(F)F)n2)nn1-c1ncccc1Cl [Example 226] | – | 100 | – | 3.7 | 100 | –
27 | CCc1cccc(CNC(=O)c2cc(Cl)cc(C)c2NC(=O)c2cc(Cn3nnc(C(F)(F)F)n3)nn2-c2ncccc2Cl)n1 [Example 228] | 2.22 | 100 | 100 | – | – | –
28 | Cc1cc(Cl)cc(C(=O)NCc2ncc(C(F)(F)F)cc2Cl)c1NC(=O)c1cc(Cn2nnc(C(F)(F)F)n2)nn1-c1ncccc1Cl [Example 230] | – | 100 | – | 4.23 | 100 | –
29 | Cc1cc(Cl)cc(C(=O)NCc2cc(Cl)ccn2)c1NC(=O)c1cc(Cn2nnc(C(F)(F)F)n2)nn1-c1ncccc1Cl [Example 232] | 3.45 | 100 | 100 | – | – | –
30 | Cc1cc(Cl)cc(C(=O)NCc2cccc(-c3ccccc3)n2)c1NC(=O)c1cc(Cn2nnc(C(F)(F)F)n2)nn1-c1ncccc1Cl [Example 233] | – | 100 | – | 4.27 | 100 | –
31 | Cc1cc(Cl)cc(C(=O)NC(C)c2ccc(C(F)(F)F)cn2)c1NC(=O)c1cc(Cn2nnc(C(F)(F)F)n2)nn1-c1ncccc1Cl (centres unmarked) [Example 234] | – | 100 | – | 4.04 | 100 | –
32 | Cc1cc(Cl)cc(C(=O)NCc2ccc(Cl)nc2)c1NC(=O)c1cc(Cn2nnc(C(F)(F)F)n2)nn1-c1ncccc1Cl [Example 235] | 3.42 | 100 | 100 | – | – | –
33 | Cc1cc(C#N)cc(C(=O)NC2CCC2)c1NC(=O)c1cc(Cn2nnc(C(F)(F)F)n2)nn1-c1ncccc1Cl [No. 1 known WO2007/144100, reference compound] | – | – | – | – | – | inhibition at 20 g/ha [3]: 80%
34 | Cc1cc(C#N)cc(C(=O)NC2CCCC2)c1NC(=O)c1cc(Cn2nnc(C(F)(F)F)n2)nn1-c1ncccc1Cl [No. 2 known WO2007/144100, reference compound] | – | – | – | – | – | inhibition at 100 g/ha [3]: 70%
35 | Cc1cc(C#N)cc(C(=O)NC2CCCC2)c1NC(=O)c1cc(Cn2nnc(C(F)(F)F)n2)nn1-c1ccccc1Cl [No. 3 known WO2007/144100, reference compound] | – | – | – | – | – | inhibition at 100 g/ha [3]: 0%; inhibition at 100 g/ha ([4]; Spodoptera frugiperda, 168 h, 100 g/ha, 7 d, comparison with prior art): 83%
36 | Cc1cc(Cl)cc(C(=O)NC2CCC2)c1NC(=O)c1cc(Cn2nnc(C(F)(F)F)n2)nn1-c1ncccc1Cl [No. 4 known WO2007/144100, reference compound] | – | – | – | – | – | inhibition at 20 g/ha [1]: 33%; inhibition at 100 g/ha [3]: 0%; inhibition at 20 g/ha [4, 7]: 83%
